Data published in article PMC10507085, “Pharmacological inhibition of TBK1/IKKε blunts immunopathology in a murine model of SARS-CoV-2 infection” (Nature Communications, 2023).

What was measured:
Assay in all cases: biochemical
Design in all cases: KINOMEscan competition binding, DNA-tagged kinase against immobilised ligand, qPCR read-out
RIOK3 = RIOK3 (Homo sapiens, UniProt O14730); details: read-out: Percent Control
Protocol: (§1) The KINOMEscan^TM kinase assays[65] were performed by Eurofins DiscoverX Corporation. For each kinase, the assay relies on the ability of the tested compound to compete against an immobilised ligand for binding to the DNA-tagged kinase. RT-qPCR is then used to measure the quantity of kinase molecules bound to the immobilised ligand, which is decreased if the tested compound competed with the kinase-ligand interaction. An 11-point 3-fold serial dilution of IDX compound was prepared in 100% DMSO at 100× final test concentration and subsequently diluted to 1× in the assay. […]

MAPK6 = MAPK6 (Homo sapiens, UniProt Q16659); details: read-out: Percent Control
Protocol: as §1

TNK1 = TNK1 (Homo sapiens, UniProt Q13470); details: read-out: Percent Control
Protocol: as §1

SRC = SRC (Homo sapiens, UniProt P12931); details: read-out: Percent Control
Protocol: as §1

GAK = GAK (Homo sapiens, UniProt O14976); details: read-out: Percent Control
Protocol: as §1

[1] = biological target: T1, RSK1(Kin.Dom.2-C-terminal) (Homo sapiens, UniProt Q15418); details: read-out: Percent Control
T1 construct: gene RPS6KA1; Kin.Dom.2 C-terminal
Protocol: as §1

MINK1 = MINK1 (Homo sapiens, UniProt Q8N4C8); details: read-out: Percent Control
Protocol: as §1

MKNK1 = MKNK1 (Homo sapiens, UniProt Q9BUB5); details: read-out: Percent Control
Protocol: as §1

PRKCD = PRKCD (Homo sapiens, UniProt Q05655); details: read-out: Percent Control
Protocol: as §1

PIKFYVE = PIKFYVE (Homo sapiens, UniProt Q9Y2I7); details: read-out: Percent Control
Protocol: as §1

INSR = INSR (Homo sapiens, UniProt P06213); details: read-out: Percent Control
Protocol: as §1

NTRK3 = NTRK3 (Homo sapiens, UniProt Q16288); details: read-out: Percent Control
Protocol: as §1

PIK3C2G = PIK3C2G (Homo sapiens, UniProt O75747); details: read-out: Percent Control
Protocol: as §1

SRPK2 = SRPK2 (Homo sapiens, UniProt P78362); details: read-out: Percent Control
Protocol: as §1

DDR1 = DDR1 (Homo sapiens, UniProt Q08345); details: read-out: Percent Control
Protocol: as §1

STK32B = STK32B (Homo sapiens, UniProt Q9NY57); details: read-out: Percent Control
Protocol: as §1

MUSK = MUSK (Homo sapiens, UniProt O15146); details: read-out: Percent Control
Protocol: as §1

CHEK1 = CHEK1 (Homo sapiens, UniProt O14757); details: read-out: Percent Control
Protocol: as §1

MKNK2 = MKNK2 (Homo sapiens, UniProt Q9HBH9); details: read-out: Percent Control
Protocol: as §1

MAP3K19 = MAP3K19 (Homo sapiens, UniProt Q56UN5)
Protocol: as §1

MAP3K19, sequence (Q56UN5 whole entry): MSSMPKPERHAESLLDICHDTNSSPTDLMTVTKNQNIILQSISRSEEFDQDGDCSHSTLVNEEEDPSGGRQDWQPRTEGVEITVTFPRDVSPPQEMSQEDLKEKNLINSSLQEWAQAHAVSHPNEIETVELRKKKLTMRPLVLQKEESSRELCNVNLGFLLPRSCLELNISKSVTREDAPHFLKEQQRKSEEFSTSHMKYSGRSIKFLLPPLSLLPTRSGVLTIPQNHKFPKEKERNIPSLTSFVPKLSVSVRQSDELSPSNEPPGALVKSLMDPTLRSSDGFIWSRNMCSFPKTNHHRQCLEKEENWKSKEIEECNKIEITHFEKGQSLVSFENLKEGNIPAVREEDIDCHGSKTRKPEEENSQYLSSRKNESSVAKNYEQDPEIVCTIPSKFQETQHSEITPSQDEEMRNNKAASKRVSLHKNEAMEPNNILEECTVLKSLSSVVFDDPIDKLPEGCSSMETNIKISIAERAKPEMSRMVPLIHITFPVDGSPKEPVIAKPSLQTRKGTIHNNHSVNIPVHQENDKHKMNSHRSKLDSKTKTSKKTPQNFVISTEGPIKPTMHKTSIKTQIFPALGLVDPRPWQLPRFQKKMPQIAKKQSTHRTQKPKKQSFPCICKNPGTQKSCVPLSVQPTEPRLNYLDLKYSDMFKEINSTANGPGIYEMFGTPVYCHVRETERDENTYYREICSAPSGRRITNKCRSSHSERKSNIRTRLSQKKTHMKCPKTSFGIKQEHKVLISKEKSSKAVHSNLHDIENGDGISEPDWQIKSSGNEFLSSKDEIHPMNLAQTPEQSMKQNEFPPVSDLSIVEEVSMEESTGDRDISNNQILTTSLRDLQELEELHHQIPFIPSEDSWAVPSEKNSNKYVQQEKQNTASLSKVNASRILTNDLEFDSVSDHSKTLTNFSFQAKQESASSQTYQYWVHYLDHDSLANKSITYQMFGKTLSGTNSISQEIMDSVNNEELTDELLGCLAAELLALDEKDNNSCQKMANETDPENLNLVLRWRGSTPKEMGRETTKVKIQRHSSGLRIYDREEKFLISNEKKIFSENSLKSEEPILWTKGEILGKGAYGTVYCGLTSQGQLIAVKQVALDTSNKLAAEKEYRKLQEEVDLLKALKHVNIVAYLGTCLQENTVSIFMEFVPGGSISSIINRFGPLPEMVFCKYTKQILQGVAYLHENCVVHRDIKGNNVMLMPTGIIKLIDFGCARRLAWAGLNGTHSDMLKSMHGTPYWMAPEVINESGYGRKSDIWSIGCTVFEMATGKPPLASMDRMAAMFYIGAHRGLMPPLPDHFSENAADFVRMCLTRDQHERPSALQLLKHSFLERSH
SRC, sequence (P12931 whole entry): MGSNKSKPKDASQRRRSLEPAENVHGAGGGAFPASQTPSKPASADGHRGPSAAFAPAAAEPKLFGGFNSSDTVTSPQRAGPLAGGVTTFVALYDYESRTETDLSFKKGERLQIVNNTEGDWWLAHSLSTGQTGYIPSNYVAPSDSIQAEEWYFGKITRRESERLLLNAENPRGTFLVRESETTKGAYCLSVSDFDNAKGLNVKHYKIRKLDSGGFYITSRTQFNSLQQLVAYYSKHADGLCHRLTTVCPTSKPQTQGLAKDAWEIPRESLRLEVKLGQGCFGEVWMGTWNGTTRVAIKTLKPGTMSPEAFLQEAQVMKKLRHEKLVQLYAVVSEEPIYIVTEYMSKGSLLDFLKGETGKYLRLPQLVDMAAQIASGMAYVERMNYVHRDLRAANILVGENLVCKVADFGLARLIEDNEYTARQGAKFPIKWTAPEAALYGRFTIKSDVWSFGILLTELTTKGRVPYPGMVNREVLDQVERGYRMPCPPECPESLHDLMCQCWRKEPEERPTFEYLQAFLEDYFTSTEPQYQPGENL
PIKFYVE, sequence (Q9Y2I7 whole entry): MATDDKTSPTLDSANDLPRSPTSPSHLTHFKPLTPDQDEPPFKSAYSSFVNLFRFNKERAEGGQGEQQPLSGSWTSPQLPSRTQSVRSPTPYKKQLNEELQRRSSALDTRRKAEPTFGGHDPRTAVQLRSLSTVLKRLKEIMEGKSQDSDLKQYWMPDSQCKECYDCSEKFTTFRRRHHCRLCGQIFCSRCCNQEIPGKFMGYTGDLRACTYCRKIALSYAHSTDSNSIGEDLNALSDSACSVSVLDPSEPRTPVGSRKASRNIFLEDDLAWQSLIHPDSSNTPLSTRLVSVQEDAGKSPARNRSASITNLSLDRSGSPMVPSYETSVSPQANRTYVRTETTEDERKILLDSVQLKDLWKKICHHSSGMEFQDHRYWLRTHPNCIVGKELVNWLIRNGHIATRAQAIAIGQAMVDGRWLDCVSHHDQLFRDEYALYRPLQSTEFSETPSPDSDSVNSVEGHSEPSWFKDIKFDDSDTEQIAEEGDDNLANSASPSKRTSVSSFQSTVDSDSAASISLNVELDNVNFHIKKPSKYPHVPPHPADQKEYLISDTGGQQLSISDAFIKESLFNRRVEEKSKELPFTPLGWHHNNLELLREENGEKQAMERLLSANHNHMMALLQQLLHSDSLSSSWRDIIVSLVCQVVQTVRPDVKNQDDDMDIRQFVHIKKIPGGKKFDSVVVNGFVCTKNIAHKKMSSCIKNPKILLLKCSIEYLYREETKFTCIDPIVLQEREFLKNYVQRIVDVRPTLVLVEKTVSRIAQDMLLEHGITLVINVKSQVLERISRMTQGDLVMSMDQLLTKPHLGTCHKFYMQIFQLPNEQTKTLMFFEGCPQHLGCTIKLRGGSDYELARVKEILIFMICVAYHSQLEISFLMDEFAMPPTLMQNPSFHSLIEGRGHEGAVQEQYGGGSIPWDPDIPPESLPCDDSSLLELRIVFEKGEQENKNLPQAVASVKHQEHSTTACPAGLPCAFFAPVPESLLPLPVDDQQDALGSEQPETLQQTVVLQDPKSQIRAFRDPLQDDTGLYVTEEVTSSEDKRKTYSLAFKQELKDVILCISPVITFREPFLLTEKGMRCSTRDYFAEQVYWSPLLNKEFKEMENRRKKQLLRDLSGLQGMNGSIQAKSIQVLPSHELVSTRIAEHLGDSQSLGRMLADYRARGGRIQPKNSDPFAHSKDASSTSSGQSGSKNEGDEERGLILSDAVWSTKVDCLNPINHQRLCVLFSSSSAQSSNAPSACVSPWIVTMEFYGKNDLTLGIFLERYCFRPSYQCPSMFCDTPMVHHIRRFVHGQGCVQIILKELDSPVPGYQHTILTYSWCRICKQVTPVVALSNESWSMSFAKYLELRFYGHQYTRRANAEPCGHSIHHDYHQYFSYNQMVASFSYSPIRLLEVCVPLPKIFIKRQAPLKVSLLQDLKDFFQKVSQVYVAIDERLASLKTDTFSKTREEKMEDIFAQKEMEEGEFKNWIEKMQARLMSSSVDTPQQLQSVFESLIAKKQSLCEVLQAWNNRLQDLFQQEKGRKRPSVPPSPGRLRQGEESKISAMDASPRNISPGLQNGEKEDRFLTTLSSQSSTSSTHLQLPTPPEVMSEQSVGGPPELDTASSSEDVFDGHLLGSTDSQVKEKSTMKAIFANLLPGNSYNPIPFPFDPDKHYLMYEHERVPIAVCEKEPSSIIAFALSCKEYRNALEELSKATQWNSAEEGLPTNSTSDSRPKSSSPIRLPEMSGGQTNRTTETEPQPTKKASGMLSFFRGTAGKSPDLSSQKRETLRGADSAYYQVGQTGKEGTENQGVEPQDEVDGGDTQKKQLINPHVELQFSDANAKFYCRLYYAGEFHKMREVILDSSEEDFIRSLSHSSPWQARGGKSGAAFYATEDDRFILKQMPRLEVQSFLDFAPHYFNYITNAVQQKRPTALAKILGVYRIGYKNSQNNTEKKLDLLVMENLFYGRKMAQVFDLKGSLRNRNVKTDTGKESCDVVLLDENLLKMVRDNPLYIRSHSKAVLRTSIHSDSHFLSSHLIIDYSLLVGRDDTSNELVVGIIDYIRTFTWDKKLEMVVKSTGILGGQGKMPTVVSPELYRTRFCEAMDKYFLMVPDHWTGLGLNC
MKNK2, sequence (Q9HBH9 whole entry): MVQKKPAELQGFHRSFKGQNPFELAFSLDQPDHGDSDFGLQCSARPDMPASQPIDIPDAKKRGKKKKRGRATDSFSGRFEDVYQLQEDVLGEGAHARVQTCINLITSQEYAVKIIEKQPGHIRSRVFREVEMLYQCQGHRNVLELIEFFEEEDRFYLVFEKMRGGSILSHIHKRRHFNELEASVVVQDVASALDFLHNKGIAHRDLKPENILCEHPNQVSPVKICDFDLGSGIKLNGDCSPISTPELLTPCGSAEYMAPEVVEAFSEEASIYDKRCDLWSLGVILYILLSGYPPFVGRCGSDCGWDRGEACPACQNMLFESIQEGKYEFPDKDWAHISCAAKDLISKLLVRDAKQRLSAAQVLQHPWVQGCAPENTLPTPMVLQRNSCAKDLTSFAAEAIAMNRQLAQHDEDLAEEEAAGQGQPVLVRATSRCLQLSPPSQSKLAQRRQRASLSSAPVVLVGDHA
STK32B, sequence (Q9NY57 whole entry): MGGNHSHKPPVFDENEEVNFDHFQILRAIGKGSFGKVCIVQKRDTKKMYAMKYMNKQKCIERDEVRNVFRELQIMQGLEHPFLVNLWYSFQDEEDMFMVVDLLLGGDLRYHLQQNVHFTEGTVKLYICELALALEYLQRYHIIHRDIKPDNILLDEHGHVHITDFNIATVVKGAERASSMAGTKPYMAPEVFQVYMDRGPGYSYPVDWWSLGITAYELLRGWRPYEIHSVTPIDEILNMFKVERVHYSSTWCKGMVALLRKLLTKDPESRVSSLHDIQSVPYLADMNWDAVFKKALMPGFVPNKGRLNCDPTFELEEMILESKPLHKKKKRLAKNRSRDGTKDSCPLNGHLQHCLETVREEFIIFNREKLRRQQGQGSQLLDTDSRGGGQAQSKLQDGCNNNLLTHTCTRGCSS

Oc1ccc(C2=Cc3ccc(O)cc3OC2)cc1 [compound 1, idronoxil]
remaining binding at 10 µM (RIOK3): 100% | remaining binding at 10 µM (MAPK6): 96% | remaining binding at 10 µM (TNK1): 76% | remaining binding at 10 µM (SRC): 47% | remaining binding at 10 µM (GAK): 58% | remaining binding at 10 µM [1]: 69% | remaining binding at 10 µM (MINK1): 38% | remaining binding at 10 µM (MKNK1): 55% | remaining binding at 10 µM (PRKCD): 96% | remaining binding at 10 µM (PIKFYVE): 91% | remaining binding at 10 µM (INSR): 71% | remaining binding at 10 µM (NTRK3): 97% | remaining binding at 10 µM (PIK3C2G): 73% | remaining binding at 10 µM (SRPK2): 99% | remaining binding at 10 µM (DDR1): 87% | remaining binding at 10 µM (STK32B): 100% | remaining binding at 10 µM (MUSK): 89% | remaining binding at 10 µM (CHEK1): 88% | remaining binding at 10 µM (MKNK2): 54% | Kd (MAP3K19): 2200 nM | remaining binding at 10 µM (MAP3K19; read-out: Percent Control): 12%
